Km data for three compounds are collected here from publication PMC8150690, “Effects of Extraction Conditions on Banana Peel Polyphenol Oxidase Activity and Insights into Inactivation Kinetics Using Thermal and Cold Plasma Treatment” (Foods, 2021).

Holding throughout (assay type): biochemical, Musa acuminata x Musa balbisiana
Assay [1] concerns T1, 'Prata' banana peel polyphenol oxidase (PPO).
T1 construct: native crude extract of freeze-dried peel (McIlvaine buffer pH 6.5, PVP, Triton X-100); not purified; o-diphenol oxidase activity
Put plainly: spectrophotometric, […] nm, proline-catechol adduct formation, non-linear Michaelis-Menten fit. To be noted: crude extract; McIlvaine buffer pH 6.5, 30 °C; constant 50 mM L-proline as coupling agent; O2 co-substrate; read-out: apparent KM.

Assay [2] shares this test system. Nature of the assay: spectrophotometric initial rate, […] nm, non-linear Michaelis-Menten fit. The note with it: crude extract; McIlvaine buffer pH 6.5, 30 °C; O2 co-substrate.
The test system is the same in assay [3]. The description is as above. To be noted: crude extract; McIlvaine buffer pH 6.5, 30 °C; O2 co-substrate. The source holds these as a separate data set.

One may read the Km as the concentration of substrate that gives half-maximal velocity. As for `Cc1ccc(O)c(O)c1` [4-methylcatechol], the Km in assay [1] turned out to be 4.01 mM.

In the case of `NCCc1ccc(O)c(O)c1` [Dopamine], the Km in assay [2] came out at 0.94 ± 0.07 mM.

Regarding `O=C(/C=C/c1ccc(O)c(O)c1)O[C@@H]1C[C@](O)(C(=O)O)C[C@@H](O)[C@H]1O` [Chlorogenic acid], in assay [3], the Km stood at 7.54 ± 0.51 mM.
